# Bridge positions count the residues as written; N and C are the ends. Peptide text beside a SMILES is read from it.
# System: Human immunodeficiency virus 1
# Experiment: Antiviral activity against HIV1
# Format: functional, organism-based
# Conditions: not given
row,EC50 [nM],SMILES
1,40,"CC[C@H](C)[C@@H]1NC(=O)[C@@H]2CSSC[C@@H]3NC(=O)[C@H](C(C)C)NC(=O)[C@H](CCCCN)NC(=O)[C@H](CC(N)=O)NC(=O)[C@H](CCCCN)NC(=O)[C@@H]4CSSC[C@H](NC(=O)[C@H](CO)NC(=O)[C@H](CCC(=O)O)NC(=O)CNC(=O)[C@H](CSSC[C@H](NC(=O)CNC(=O)[C@H](CC(C)C)NC(=O)[C@H](C)NC(=O)[C@H](C)NC(=O)[C@H](CO)NC1=O)C(=O)N[C@@H](CO)C(=O)N4)NC(=O)[C@@H]1CCCN1C(=O)[C@H]([C@@H](C)CC)NC(=O)CNC(=O)[C@H](CC(N)=O)NC(=O)[C@H](CCCNC(=N)N)NC(=O)[C@H](Cc1ccc(O)cc1)NC3=O)C(=O)N[C@@H](C(C)C)C(=O)N[C@@H](Cc1c[nH]c3ccccc13)C(=O)N[C@@H]([C@@H](C)CC)C(=O)N1CCC[C@H]1C(=O)N2 [CIRCULIN A] (cyclo(AALGCSCKNKVCYRNGIPCGESCVWIPCIS); disulfide 5-19, 7-23, 12-28)"
2,40,"CC[C@H](C)[C@@H]1NC(=O)[C@@H]2CSSC[C@@H]3NC(=O)[C@H](C(C)C)NC(=O)[C@H](CCCCN)NC(=O)[C@H](CC(N)=O)NC(=O)[C@H](CCCCN)NC(=O)[C@@H]4CSSC[C@H](NC(=O)[C@H](CO)NC(=O)[C@H](CCC(=O)O)NC(=O)CNC(=O)[C@H](CSSC[C@H](NC(=O)CNC(=O)[C@H](CC(C)C)NC(=O)[C@H](CC(C)C)NC(=O)[C@H]([C@@H](C)O)NC(=O)[C@H](CO)NC1=O)C(=O)N[C@@H](CO)C(=O)N4)NC(=O)[C@@H]1CCCN1C(=O)[C@H]([C@@H](C)CC)NC(=O)[C@H](C(C)C)NC(=O)CNC(=O)[C@H](CC(N)=O)NC(=O)[C@H](CCCNC(=N)N)NC(=O)[C@H](Cc1ccc(O)cc1)NC3=O)C(=O)N[C@@H](C(C)C)C(=O)N[C@@H](Cc1ccccc1)C(=O)N[C@@H]([C@@H](C)CC)C(=O)N1CCC[C@H]1C(=O)N2 [CIRCULIN B] (cyclo(CGESCVFIPCISTLLGCSCKNKVCYRNGVIP); disulfide 1-17, 5-19, 10-24)"
3,40,"CC[C@H](C)[C@@H]1NC(=O)[C@@H]2CSSC[C@@H]3NC(=O)[C@H](C(C)C)NC(=O)[C@H](CCCCN)NC(=O)[C@H](CO)NC(=O)[C@H](CCCCN)NC(=O)[C@@H]4CSSC[C@H](NC(=O)[C@H](CO)NC(=O)[C@H](CCC(=O)O)NC(=O)CNC(=O)[C@H](CSSC[C@H](NC(=O)CNC(=O)[C@H](C)NC(=O)[C@H](C(C)C)NC(=O)[C@H](CO)NC(=O)[C@H]([C@@H](C)O)NC1=O)C(=O)N[C@@H](CO)C(=O)N4)NC(=O)[C@@H]1CCCN1C(=O)[C@H]([C@@H](C)CC)NC(=O)CNC(=O)[C@H](CC(N)=O)NC(=O)[C@H](CCCNC(=N)N)NC(=O)[C@H](Cc1ccc(O)cc1)NC3=O)C(=O)N[C@@H](C(C)C)C(=O)N[C@@H](Cc1ccccc1)C(=O)N[C@@H]([C@@H](C)CC)C(=O)N1CCC[C@H]1C(=O)N2 [CIRCULIN C] (cyclo(AGCSCKSKVCYRNGIPCGESCVFIPCITSV); disulfide 3-17, 5-21, 10-26)"
4,40,"CC[C@H](C)[C@@H]1NC(=O)[C@H](CO)NC(=O)[C@H]([C@@H](C)O)NC(=O)[C@H](Cc2ccc(O)cc2)NC(=O)[C@@H]2CSSC[C@@H]3NC(=O)[C@H](C(C)C)NC(=O)[C@H](CCCCN)NC(=O)[C@H](CC(N)=O)NC(=O)[C@H](CCC(=O)O)NC(=O)[C@@H]4CSSC[C@H](NC(=O)[C@H](CO)NC(=O)[C@H](CCC(=O)O)NC(=O)CNC(=O)[C@H](CSSC[C@H](NC(=O)[C@H](CC(N)=O)NC(=O)[C@H](Cc5ccccc5)NC1=O)C(=O)N[C@@H](CCCCN)C(=O)N4)NC(=O)[C@@H]1CCCN1C(=O)[C@H]([C@@H](C)CC)NC(=O)[C@H](CCCCN)NC(=O)[C@H](CC(=O)O)NC(=O)[C@H](Cc1cnc[nH]1)NC(=O)[C@H](Cc1ccc(O)cc1)NC3=O)C(=O)N[C@@H](C(C)C)C(=O)N[C@@H](Cc1c[nH]c3ccccc13)C(=O)N[C@@H]([C@@H](C)CC)C(=O)N1CCC[C@H]1C(=O)N2 [CIRCULIN D] (cyclo(CENKVCYHDKIPCGESCVWIPCYTSIFNCK); disulfide 1-17, 6-22, 13-29)"
5,40,"CC[C@H](C)[C@@H]1NC(=O)[C@H](CCCCN)NC(=O)[C@H](CC(=O)O)NC(=O)[C@H](Cc2cnc[nH]2)NC(=O)[C@H](Cc2ccc(O)cc2)NC(=O)[C@@H]2CSSC[C@@H]3NC(=O)[C@@H]4CCCN4C(=O)[C@H]([C@@H](C)CC)NC(=O)[C@H](Cc4c[nH]c5ccccc45)NC(=O)[C@H](C(C)C)NC(=O)[C@@H]4CSSC[C@H](NC(=O)[C@H](CCCCN)NC(=O)[C@H](CSSC[C@H](NC(=O)[C@@H]5CCCN5C1=O)C(=O)NCC(=O)N[C@@H](CCC(=O)O)C(=O)N[C@@H](CO)C(=O)N4)NC(=O)[C@H](CC(N)=O)NC(=O)[C@H](Cc1ccccc1)NC(=O)[C@H](C(C)C)NC(=O)[C@H](CO)NC(=O)[C@H]([C@@H](C)O)NC(=O)[C@H](CC(C)C)NC3=O)C(=O)N[C@@H](CCC(=O)O)C(=O)N[C@@H](CC(N)=O)C(=O)N[C@@H](CCCCN)C(=O)N[C@@H](C(C)C)C(=O)N2 [CIRCULIN E] (cyclo(CENKVCYHDKIPCGESCVWIPCLTSVFNCK); disulfide 1-17, 6-22, 13-29)"
6,40,"CC[C@H](C)[C@@H]1NC(=O)[C@H](C)NC(=O)[C@H](C)NC(=O)[C@H](CO)NC(=O)[C@H]([C@@H](C)CC)NC(=O)[C@@H]2CSSC[C@@H]3NC(=O)[C@H](C(C)C)NC(=O)[C@H](CCCCN)NC(=O)[C@H](CC(N)=O)NC(=O)[C@H](CCCCN)NC(=O)[C@@H]4CSSC[C@H](NC(=O)[C@H](CO)NC(=O)[C@H](CCC(=O)O)NC(=O)CNC(=O)[C@H](CSSC[C@H](NC(=O)CNC1=O)C(=O)N[C@@H](CO)C(=O)N4)NC(=O)[C@@H]1CCCN1C(=O)[C@H]([C@@H](C)CC)NC(=O)[C@H](C)NC(=O)[C@H](CCCNC(=N)N)NC(=O)[C@H](Cc1ccc(O)cc1)NC3=O)C(=O)N[C@@H](C(C)C)C(=O)N[C@@H](Cc1c[nH]c3ccccc13)C(=O)N[C@@H]([C@@H](C)CC)C(=O)N1CCC[C@H]1C(=O)N2 [CIRCULIN F] (cyclo(AAIGCSCKNKVCYRAIPCGESCVWIPCIS); disulfide 5-18, 7-22, 12-27)"

# System: Human immunodeficiency virus
# Experiment: Antiviral activity against HIV infected in human MOLT4 cells assessed as inhibition of virus-induced cytopathic effect
# Format: functional, organism-based
# Conditions: Human immunodeficiency virus 1, MOLT-4
row,EC50 [ng/mL],SMILES
1,8,"CC(C)[C@@H]1NC(=O)[C@H](CCCNC(=N)N)NC(=O)[C@H](Cc2ccccc2)NC(=O)[C@@H](NC(=O)[C@H](Cc2c[nH]c3ccccc23)NC(=O)[C@H](CCCNC(=N)N)NC(=O)[C@@H](N)CCCNC(=N)N)CSSC[C@@H]2NC(=O)[C@H](Cc3ccccc3)NC(=O)CNC(=O)[C@H](CCCCN)NC(=O)[C@H](Cc3ccc(O)cc3)NC(=O)[C@H](CSSC[C@@H](C(=O)N[C@@H](CCCNC(=N)N)C(N)=O)NC(=O)[C@H](CCCCN)NC(=O)[C@H](CCCNC(=N)N)NC(=O)[C@H](Cc3ccc(O)cc3)NC2=O)NC1=O [POLYPHEMUSIN II] (H-RRWCFRVCYKGFCYRKCR-NH2; disulfide 4-13, 8-17)"

# From ChEMBL document CHEMBL1137808, “Biologically active proteins from natural product extracts” (J Nat Prod, 2001)
